Laboratory results: US20250270170A1, “2,3-DIMETHOXY-5-METHYL-1,4-BENZOQUINONE ALKYL ALCOHOL DERIVATIVE AND USE THEREOF” (BEIJING ANJIANXI BIO-MEDICAL TECHNOLOGY CO., LTD., priority 2021, published 2025)
Marks after values point to notes of the source that are not given here.

What was measured:
[1] = system: human esophageal cancer ECA109 transplanted tumor; assay: Example 8: tumor growth in ECA109 transplanted tumor model; assay type: in vivo, nude mice; conditions: DDP 5 mg/kg i.p. QW×4
Description: The assay animals, calculation of tumor volume (TV), end of assay, data recording, calculation formula of tumor growth inhibition rate TGI (%), and statistical analysis method were the same as those in Example 3; the preparation of the administration formulation of the compound of formula (I) was the same as that in Example 5. An appropriate amount of CMC-Na solid was weighed, and an appropriate volume of deionized water was firstly added. The mixture was vortexed and stirred until the solid was completely dispersed and evenly distributed, to give a 0.5% CMC-Na aqueous solution, which was stored at 2 to 8° C. in a refrigerator. An appropriate amount of DDP was weighed and put into a glass bottle, and an appropriate amount of physiological saline was added to the bottle. […] This solution was prepared before each administration. Human esophageal cancer cells ECA109 were obtained from the Cell Bank of Wuhan University (CCTCC, cryopreserved in liquid nitrogen in the laboratory). […] The cells were pipetted with a pipette to disperse them evenly, and the cells were put into a 50-mL centrifuge tube, which was placed in an ice box. A 1-mL syringe was used to draw the cell suspension, which was injected subcutaneously into the axilla of the front right limb of a […]. Each animal was inoculated with 200 μL (1.0×10^7 cells/mouse) to establish an ECA109 transplanted tumor model in nude mice. After the inoculation, the animal status and tumor growth were regularly observed, and the tumor diameter was measured using an electronic vernier caliper. The data were input into an Excel spreadsheet to calculate the tumor volume. When the tumor volume reached 100 to 300 mm^3, animals in good health and with similar tumor volumes were selected and divided into groups using randomized block method. The day of grouping was regarded as the first day of the assay (D1). After the start of the assay, the tumor diameter was measured twice a week, the tumor volume was calculated, and the animal body weight was also weighed and recorded. [table]

A549 cells = assay: Cell EDU proliferation assay, A549; assay type: cell-based, human; conditions: 150 μM
Method: The compound of formula (I) at a concentration of 150 μM was co-cultured with the cells for 42 h, and then the FBS concentration in the FBS stimulation well was increased to 20%. The cells were cultured for another 6 h, and then detected using a Cell-Light EDUApollo567 kit.
(1) Cells in the logarithmic growth phase were taken, and inoculated into a 24-well culture plate at 1×10^4 cells per well. The culture plate was cultured in a 37° C. incubator under the condition of 5% CO2, and drug was added according to the assay design when the cells adhered to the wall.
(2) After the drug treatment, the Cell-Light EDU Apollo567 kit was taken out. The reagent A in the kit was diluted with 1640 complete culture medium at a ratio of 1000:1 to prepare a 50 μM EDU culture medium, 300 μl of which was configured to each well of the 24-well plate. The 24-well plate was taken out from the incubator, and the original culture medium was aspirated with a vacuum aspirator. […]
(12) 150 μl of PBS was added to each well to wash once, and the PBS was discarded. Then, 200 μl of PBS was added, and the plate was placed on an inverted fluorescence microscope to take pictures. 6 fields of view were taken for each well under a 200× field of view, and the proportion of EDU-positive cells among 100 cells was calculated. […]

Structure (SMILES): N.N.[Cl][Pt][Cl] [DDP, cisplatin]
- Mean tumor volume ([1]; D1): 193 ± 9 mm^3
- Mean tumor volume ([1]; D5): 204 ± 5 mm^3
- tumor growth inhibition rate (TGI) ([1]; D5): (64%)
- Mean tumor volume ([1]; D8): 203 ± 11** mm^3
- tumor growth inhibition rate (TGI) ([1]; D8): (87%)
- Mean tumor volume ([1]; D12): 215 ± 10** mm^3
- tumor growth inhibition rate (TGI) ([1]; D12): (79%)
- Mean tumor volume ([1]; D15): 224 ± 8** mm^3
- tumor growth inhibition rate (TGI) ([1]; D15): (79%)
- Mean tumor volume ([1]; D19): 247 ± 8** mm^3
- tumor growth inhibition rate (TGI) ([1]; D19): (67%)
- Mean tumor volume ([1]; D22): 259 ± 8** mm^3
- tumor growth inhibition rate (TGI) ([1]; D22): (63%)
- Mean tumor volume ([1]; D26): 276 ± 9** mm^3
- tumor growth inhibition rate (TGI) ([1]; D26): (58%)
- Mean tumor volume ([1]; D29): 285 ± 9** mm^3
- tumor growth inhibition rate (TGI) ([1]; D29): (59%)
- Mean tumor volume ([1]; D33): 259 ± 12** mm^3
- tumor growth inhibition rate (TGI) ([1]; D33): (73%)
- Mean tumor volume ([1]; D36): 292 ± 11** mm^3
- tumor growth inhibition rate (TGI) ([1]; D36): (60%)

Structure (SMILES): COC1=C(OC)C(=O)C(CCCCCCCCCCOC(=O)Cc2c(C)n(C(=O)c3ccc(Cl)cc3)c3ccc(OC)cc23)=C(C)C1=O [compound of formula (I)]
- proportion of proliferating cells (EDU) (A549 cells; 48 hours, vs CTL (0 μM)): significantly reduced
- cell proliferation under FBS stimulation (EDU) (A549 cells; FBS increased to 20% for last 6 h): can inhibit the cell proliferation effect
